From patent publication US20250313528A1, “NOVEL COMPOUND AND PHARMACEUTICAL COMPOSITION FOR PREVENTING OR TREATING PULMONARY FIBROSIS COMPRISING SAME AS ACTIVE INGREDIENT” (GIL MEDICAL CENTER, priority 2022, published 2025)

Legend:
[1] = tested on: FN, COL1A1, α-SMA, TGF-β, and CTGF; assay: qRT-PCR of fibrosis-related genes in lung tissue, BLM model; assay type: in vivo, C57BL/6N mice; conditions: BLM mice, compared to the BLM group
Method: (§1) Specifically, 7-week-old C57BL/6N mice were exposed to BLM (3-5 units/kg) via the airway. The compounds were administered orally at doses of 200 μg/kg and 500 μg/kg for Compound 1, and 100 μg/kg and 200 μg/kg for Compound 2, three times a week for three weeks starting the day after BLM exposure. Body weight gain was periodically measured during the experimental period, and lung weight was measured at the end of the experiment.
Specifically, to extract RNA from lung tissue, approximately 100 mg of pulverized lung tissue was dispensed into 1.5 mL tubes, and total RNA was extracted using TRIzol reagent (TakaRa Bio Inc., Japan). After adding 1 mL of TRIzol reagent to denature the tissue, the samples were transferred to 1.5 ml tubes, and 200 μl of chloroform was added, followed by vortexing for 20 seconds to mix thoroughly. After reacting at room temperature for 15 minutes, the samples were centrifuged at 14,000 rpm for 20 minutes to obtain the supernatant. An equal volume of isopropyl alcohol was added, inverted, and allowed to stand at room temperature for 10 minutes. The samples were centrifuged at 14,000 rpm for 15 minutes to obtain RNA pellets, washed with 70% ethanol at 14,000 rpm for 5 minutes, and dried for 5 minutes. […] The RNA concentration and purity were measured at OD 260/280 nm using a Nanodrop.

[2] = tested on: fibronectin, collagen 1, α-SMA; assay: Immunohistochemistry of fibrosis-related proteins in lung tissue, BLM model; assay type: in vivo, C57BL/6N mice; conditions: BLM mice; for expression of α-SMA, collagen, and fibronectin in lung tissue (IHC): compared to the BLM group
Method: as §1
(§2) Specifically, the excised lung tissue was embedded in paraffin and sectioned into 4 μm slices using a microtome. These tissue sections were used for H&E, MT stain, and Immunohistochemistry (IHC). Each experiment was conducted by deparaffinizing and rehydrating the sections using xylene and ethanol. For IHC, the LSAB2 system HRP (DAKO, Carpinteria, CA, USA) kit was used. Antibody retrieval was performed in 0.1 mM citric acid (pH 6), and the experiment was conducted according to the provided instructions. The sections were blocked with blocking buffer at room temperature for 1 hour, then incubated overnight at 4° C. with primary antibodies (fibronectin, collagen 1, α-SMA). After blocking with secondary antibodies at room temperature for 1 hour, the Streptavidin-HRP system was used for 10 minutes, followed by exposure to DAB solution, hematoxylin staining, dehydration, clearing, and mounting with Canada balsam. The stained slides were examined under an optical microscope (BK51, Olympus, Japan). The staining results were quantified using the Image J program.
To examine the key factors involved in fibrosis, immunohistochemistry (IHC) was performed using the same method as in Example 6-3.

[3] = tested on: FN, COL1A1, and α-SMA; assay: qRT-PCR of fibrosis-related genes in TGF-β1-induced MRC-5 cells; assay type: cell-based, human; conditions: MRC-5, 10 μM pretreatment 1 hour, TGF-β1 1 ng/ml 48 hours, FIG. 4c/4d
Method: MRC-5 and DHLF-IPF cells were each cultured in growth medium, and the medium was removed. […] The medium was then removed, and the cells were washed once with PBS. Intracellular total RNA was extracted from the cultured cells using TRIzol reagent (TaKaRa Bio Inc., Japan) for gene expression analysis. 1 mL of TRIzol reagent was added to lyse the cells and denature the tissue. The lysate was transferred to each 1.5 mL tube, and 200 μL of chloroform was added thereto, followed by vortexing for 20 seconds to ensure complete mixing. After incubating at room temperature for 15 minutes, the mixture was centrifuged at 14,000 rpm for 20 minutes to obtain the supernatant. After adding an equal volume of isopropyl alcohol, the tubes were inverted and incubated at room temperature for 10 minutes. The sample was centrifuged at 14,000 rpm for 15 minutes to obtain an RNA pellet, which was washed by centrifugation with 70% ethanol for use on RNA at 14,000 rpm for 5 minutes, and dried for 5 minutes. The dried RNA sample was added with 20 μL of distilled water treated with 0.1% diethyl pyrocarbonate (DEPC) to dissolve the pallet and the resultant was used as a sample for cDNA synthesis. 1 μL of the same was used to measure the RNA concentration and purity at O.D. 260/280 nm using a Nanodrop.
Single-stranded cDNA synthesis was performed by mixing 1 μg of the extracted total RNA with 1 μL of oligo-d(T) primer ([…]) and 10 mM dNTP (TaKaRa Bio Inc., Japan), reacting at 65° C. for 5 minutes, followed by rapid cooling. To this template, 4 μL of 5×RT buffer, 0.5 μL of RNA inhibitor, and 100 units of RTase (TaKaRa Bio Inc., Japan) were added, and the total volume was adjusted to 20 μL using DEPC-treated distilled water. […]
Each gene expression level was measured using real-time PCR. […] The specificity of the amplified product was confirmed through melting curve analysis, and the target genes were quantified and compared using GAPDH as a control gene.

[4] = tested on: bleomycin (BLM)-induced pulmonary fibrosis animal models; assay: H&E and Masson-trichrome histological evaluation of lung, BLM model; assay type: in vivo, C57BL/6N mice; conditions: BLM mice; for degree of fibrosis in the lung tissue: compared to the BLM group; for inflammation in lung tissue (H&E): both doses (Compound 1 200 and 500 μg/kg; Compound 2 100 and 200 μg/kg)
Method: as §1
To observe changes in lung tissue, Hematoxylin and Eosin (H&E) staining and Masson-trichrome staining were performed on lung tissue samples to assess the degree of inflammation and fibrosis.
as §2

SMILES	expression of five genes (FN, COL1A1, α-SMA, TGF-β, and CTGF) in lung tissue [1]	expression of α-SMA, collagen, and fibronectin in lung tissue (IHC) [2]	gene expression levels of FN, COL1A1, and α-SMA [3]	degree of fibrosis in the lung tissue ([4]; 100 μg/kg)	degree of fibrosis in the lung tissue ([4]; 200 μg/kg)	inflammation in lung tissue (H&E) [4]	concentration with the best inhibitory effect on weight recovery and related protein expression ([2]; 200 vs 500 μg/kg) [µg/kg]	degree of fibrosis in the lung tissue ([4]; 500 μg/kg)
C=CCOC(=O)C(CSC(=S)NCCCC[S+](C)[O-])NC(C)=O (stereo not shown) [Compound 2]	significant reduction	significant reduction in the BLM+GSF-018 group in a dose-dependent manner	significantly reducing the expression levels compared to sulforaphane	significantly reduced	significantly reduced	significant reduction in inflammation at both concentrations		
CCOC(=O)C(CSC(=S)NCCCC[S+](C)[O-])NC(C)=O (stereo not shown) [Compound 1]	significant reduction	significant reduction	significantly reducing the expression levels compared to sulforaphane		significantly reduced	significant reduction in inflammation regardless of concentration	200	significantly reduced
